Measured values taken from ChEMBL document CHEMBL5665443, “Enzyme Inhibitor Single Concentration assay results for EUbOPEN Chemogenomics Library” (2024).

Columns and labels:
[1] = target: Methyl-CpG-binding domain protein 4 (Homo sapiens) (UniProt O95243); details: Compound Concentration 10.0 uM, Hit No;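 note: MBD4 activity read as fluorescence at 594 nm from cleavage and release of a quenched duplex DNA oligonucleotide, with APE1 coupled to incise the strand and raise turnover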
Description: Inhibition of MBD4 by quantifying inhibition of MBD4-mediated cleavage and dissociation of quenched duplex DNA oligonucleotides, measured as fluorescence at 594 nm. To generate a functional strand incision and increase turn-over this assay is coupled to APE1.

[2] = target: DNA-3-methyladenine glycosylase (Homo sapiens) (UniProt P29372); details: Compound Concentration 10.0 uM, Hit No;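 note: enzyme assay where MPG cuts a quenched duplex DNA oligonucleotide probe, paired with APE1 for strand incision and turnover, read as fluorescence at 594 nm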
DNA-3-methyladenine glycosylase (Homo sapiens), sequence (P29372 whole entry): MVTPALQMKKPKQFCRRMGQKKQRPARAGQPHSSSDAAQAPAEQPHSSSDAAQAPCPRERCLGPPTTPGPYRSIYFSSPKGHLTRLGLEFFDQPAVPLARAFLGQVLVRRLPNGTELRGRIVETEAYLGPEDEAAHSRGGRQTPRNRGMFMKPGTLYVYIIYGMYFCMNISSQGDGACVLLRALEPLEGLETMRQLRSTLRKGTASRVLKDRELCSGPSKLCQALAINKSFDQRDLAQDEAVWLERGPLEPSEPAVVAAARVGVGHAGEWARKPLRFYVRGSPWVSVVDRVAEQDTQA
Description: Inhibition of MPG by quantifying inhibition of MPG-mediated cleavage and dissociation of quenched duplex DNA oligonucleotides, measured as fluorescence at 594 nm. To generate a functional strand incision and increase turn-over this assay is coupled to APE1.

[3] = target: T1, Adenine DNA glycosylase (Homo sapiens) (UniProt Q9UIF7); details: Compound Concentration 10.0 uM, Hit No;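 note: human MUTYH activity read as 594 nm fluorescence from cleavage and release of a quenched DNA duplex, coupled with APE1 for strand incision, lower signal meaning inhibition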
T1 sequence (whole entry): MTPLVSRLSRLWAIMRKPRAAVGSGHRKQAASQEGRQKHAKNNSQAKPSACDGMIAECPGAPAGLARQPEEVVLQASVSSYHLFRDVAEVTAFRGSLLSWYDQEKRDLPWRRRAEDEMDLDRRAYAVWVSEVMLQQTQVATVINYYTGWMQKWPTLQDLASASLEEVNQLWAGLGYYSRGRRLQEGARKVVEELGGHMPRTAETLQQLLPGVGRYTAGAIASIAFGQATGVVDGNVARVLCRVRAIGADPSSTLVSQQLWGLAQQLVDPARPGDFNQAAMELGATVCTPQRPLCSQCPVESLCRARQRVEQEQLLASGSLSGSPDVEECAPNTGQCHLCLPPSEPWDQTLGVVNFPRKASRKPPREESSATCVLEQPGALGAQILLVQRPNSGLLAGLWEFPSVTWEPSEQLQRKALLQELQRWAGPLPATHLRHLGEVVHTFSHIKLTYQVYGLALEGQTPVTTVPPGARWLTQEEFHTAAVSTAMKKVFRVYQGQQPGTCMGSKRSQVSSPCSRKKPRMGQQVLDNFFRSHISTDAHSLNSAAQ
Description: Inhibition of MUTYH by quantifying inhibition of MUTYH-mediated cleavage and dissociation of quenched duplex DNA oligonucleotides, measured as fluorescence at 594 nm. To generate a functional strand incision and increase turn-over this assay is coupled to APE1.

[4] = target: Endonuclease 8-like 1 (Homo sapiens) (UniProt Q96FI4); details: Compound Concentration 10.0 uM, Hit No;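 note: fluorescence at 594 nm from quenched duplex DNA oligonucleotides released by NEIL1 cleavage and strand separation, reported as reduction of this enzyme activity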
Endonuclease 8-like 1 (Homo sapiens), sequence (Q96FI4 whole entry): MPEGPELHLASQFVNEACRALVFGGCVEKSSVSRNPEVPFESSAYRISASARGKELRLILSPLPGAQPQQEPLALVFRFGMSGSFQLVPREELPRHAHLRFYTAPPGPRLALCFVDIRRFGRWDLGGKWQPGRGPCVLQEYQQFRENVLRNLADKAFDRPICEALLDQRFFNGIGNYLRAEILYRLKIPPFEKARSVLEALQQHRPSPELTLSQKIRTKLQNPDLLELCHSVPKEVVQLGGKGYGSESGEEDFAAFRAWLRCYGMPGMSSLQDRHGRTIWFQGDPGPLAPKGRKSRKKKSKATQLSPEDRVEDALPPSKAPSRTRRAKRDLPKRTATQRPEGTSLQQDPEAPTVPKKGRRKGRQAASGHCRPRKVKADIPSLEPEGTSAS
Description: Inhibition of NEIL1 by quantifying inhibition of NEIL1-mediated cleavage and dissociation of quenched duplex DNA oligonucleotides, measured as fluorescence at 594 nm.

[5] = target: T2, Endonuclease 8-like 2 (Homo sapiens) (UniProt Q969S2); details: Compound Concentration 10.0 uM, Hit No;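 note: fluorescence at 594 nm reports NEIL2 cutting and release of a quenched double-stranded DNA oligo substrate, reduced signal read as inhibition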
T2 sequence (whole entry): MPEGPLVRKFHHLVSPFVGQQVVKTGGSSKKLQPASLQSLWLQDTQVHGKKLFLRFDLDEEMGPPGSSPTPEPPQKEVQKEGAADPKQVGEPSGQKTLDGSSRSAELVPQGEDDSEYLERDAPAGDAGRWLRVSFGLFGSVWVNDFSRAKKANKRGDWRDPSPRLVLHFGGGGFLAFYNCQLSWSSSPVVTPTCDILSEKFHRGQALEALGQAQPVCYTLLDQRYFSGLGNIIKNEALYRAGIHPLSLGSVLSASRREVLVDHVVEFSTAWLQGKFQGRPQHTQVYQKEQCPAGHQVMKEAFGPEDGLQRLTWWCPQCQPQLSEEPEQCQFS
Description: Inhibition of NEIL2 by quantifying inhibition of NEIL2-mediated cleavage and dissociation of quenched duplex DNA oligonucleotides, measured as fluorescence at 594 nm.

[6] = target: T3, Endonuclease III-like protein 1 (Homo sapiens) (UniProt P78549); details: Compound Concentration 10.0 uM, Hit No;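 note: enzyme assay tracking NTHL1 cutting and release of a quenched double-stranded DNA oligo substrate, read as fluorescence at 594 nm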
T3 sequence (whole entry): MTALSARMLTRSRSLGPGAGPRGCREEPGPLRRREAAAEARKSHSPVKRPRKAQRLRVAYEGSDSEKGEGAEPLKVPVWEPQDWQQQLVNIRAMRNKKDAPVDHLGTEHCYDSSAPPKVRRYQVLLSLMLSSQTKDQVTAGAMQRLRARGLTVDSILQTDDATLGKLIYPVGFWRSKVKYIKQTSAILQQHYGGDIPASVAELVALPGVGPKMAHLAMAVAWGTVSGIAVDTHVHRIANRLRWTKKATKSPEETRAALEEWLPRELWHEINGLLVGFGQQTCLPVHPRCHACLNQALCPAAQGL
Description: Inhibition of NTHL1 by quantifying inhibition of NTHL1-mediated cleavage and dissociation of quenched duplex DNA oligonucleotides, measured as fluorescence at 594 nm.

[7] = target: N-glycosylase/DNA lyase (Homo sapiens) (UniProt O15527); details: Compound Concentration 10.0 uM;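 note: OGG1 cleavage of a quenched duplex DNA oligonucleotide, coupled to APE1 for strand incision, read as fluorescence at 594 nm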
N-glycosylase/DNA lyase (Homo sapiens), sequence (O15527 whole entry): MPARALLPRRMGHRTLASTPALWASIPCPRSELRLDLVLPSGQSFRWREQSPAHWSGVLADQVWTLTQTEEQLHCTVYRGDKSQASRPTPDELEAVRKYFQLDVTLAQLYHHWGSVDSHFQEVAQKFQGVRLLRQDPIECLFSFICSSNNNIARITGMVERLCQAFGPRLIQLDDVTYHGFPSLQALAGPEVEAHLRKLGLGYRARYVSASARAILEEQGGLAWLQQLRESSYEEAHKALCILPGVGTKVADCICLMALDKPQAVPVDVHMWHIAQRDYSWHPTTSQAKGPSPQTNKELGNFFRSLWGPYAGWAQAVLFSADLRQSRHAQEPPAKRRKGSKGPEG
Description: Inhibition of OGG1 by quantifying inhibition of OGG1-mediated cleavage and dissociation of quenched duplex DNA oligonucleotides, measured as fluorescence at 594 nm. To generate a functional strand incision and increase turn-over this assay is coupled to APE1.

[8] = target: T4, Single-strand selective monofunctional uracil DNA glycosylase (Homo sapiens) (UniProt Q53HV7); details: Compound Concentration 10.0 uM, Hit No;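 note: enzymatic SMUG1 assay coupled with APE1, reading fluorescence at 594 nm released when a quenched double-stranded DNA oligonucleotide substrate is cleaved and separated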
T4 sequence (whole entry): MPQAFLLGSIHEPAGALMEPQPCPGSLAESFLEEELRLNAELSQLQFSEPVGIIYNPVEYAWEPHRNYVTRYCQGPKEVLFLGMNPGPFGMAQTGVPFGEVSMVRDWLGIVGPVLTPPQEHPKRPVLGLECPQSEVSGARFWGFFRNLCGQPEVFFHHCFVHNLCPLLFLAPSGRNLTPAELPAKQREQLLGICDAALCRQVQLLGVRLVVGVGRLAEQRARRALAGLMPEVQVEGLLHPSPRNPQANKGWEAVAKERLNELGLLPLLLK
Description: Inhibition of SMUG1 by quantifying inhibition of SMUG1-mediated cleavage and dissociation of quenched duplex DNA oligonucleotides, measured as fluorescence at 594 nm. To generate a functional strand incision and increase turn-over this assay is coupled to APE1.

[9] = target: G/T mismatch-specific thymine DNA glycosylase (Homo sapiens) (UniProt Q13569); details: Compound Concentration 10.0 uM, Hit No;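 note: human TDG cleavage of quenched duplex DNA oligonucleotides coupled to APE1, strand release read as fluorescence at 594 nm, inhibition of TDG activity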
G/T mismatch-specific thymine DNA glycosylase (Homo sapiens), sequence (Q13569 whole entry): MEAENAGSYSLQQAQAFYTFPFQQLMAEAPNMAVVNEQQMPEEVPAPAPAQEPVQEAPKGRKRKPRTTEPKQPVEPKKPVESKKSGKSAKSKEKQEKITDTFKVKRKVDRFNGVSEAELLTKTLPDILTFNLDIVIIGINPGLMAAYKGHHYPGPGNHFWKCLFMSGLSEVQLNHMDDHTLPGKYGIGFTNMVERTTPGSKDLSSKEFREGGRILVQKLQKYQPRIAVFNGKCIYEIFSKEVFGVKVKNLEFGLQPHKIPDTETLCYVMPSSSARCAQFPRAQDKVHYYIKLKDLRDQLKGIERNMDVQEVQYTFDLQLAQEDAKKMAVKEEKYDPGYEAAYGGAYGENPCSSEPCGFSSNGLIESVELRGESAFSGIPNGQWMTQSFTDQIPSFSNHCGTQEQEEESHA
Description: Inhibition of TDG by quantifying inhibition of TDG-mediated cleavage and dissociation of quenched duplex DNA oligonucleotides, measured as fluorescence at 594 nm. To generate a functional strand incision and increase turn-over this assay is coupled to APE1.

[10] = target: Uracil-DNA glycosylase (Homo sapiens) (UniProt P13051); details: Compound Concentration 10.0 uM, Hit No;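 note: UNG excision on a quenched double-stranded DNA oligo probe, with APE1 added for strand incision and turnover, read as fluorescence at 594 nm as strands separate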
Uracil-DNA glycosylase (Homo sapiens), sequence (P13051 whole entry): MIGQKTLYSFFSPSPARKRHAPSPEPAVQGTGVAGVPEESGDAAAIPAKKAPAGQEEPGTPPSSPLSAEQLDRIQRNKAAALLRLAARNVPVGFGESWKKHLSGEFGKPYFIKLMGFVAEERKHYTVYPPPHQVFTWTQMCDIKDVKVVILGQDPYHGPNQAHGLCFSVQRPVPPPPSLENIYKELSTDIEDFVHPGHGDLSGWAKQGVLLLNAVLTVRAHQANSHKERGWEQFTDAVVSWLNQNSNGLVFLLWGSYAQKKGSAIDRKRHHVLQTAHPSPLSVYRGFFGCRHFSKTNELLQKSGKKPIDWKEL
Description: Inhibition of UNG by quantifying inhibition of UNG-mediated cleavage and dissociation of quenched duplex DNA oligonucleotides, measured as fluorescence at 594 nm. To generate a functional strand incision and increase turn-over this assay is coupled to APE1.

Methyl-CpG-binding domain protein 4 (Homo sapiens), sequence (O95243 whole entry, the tested form may be a part): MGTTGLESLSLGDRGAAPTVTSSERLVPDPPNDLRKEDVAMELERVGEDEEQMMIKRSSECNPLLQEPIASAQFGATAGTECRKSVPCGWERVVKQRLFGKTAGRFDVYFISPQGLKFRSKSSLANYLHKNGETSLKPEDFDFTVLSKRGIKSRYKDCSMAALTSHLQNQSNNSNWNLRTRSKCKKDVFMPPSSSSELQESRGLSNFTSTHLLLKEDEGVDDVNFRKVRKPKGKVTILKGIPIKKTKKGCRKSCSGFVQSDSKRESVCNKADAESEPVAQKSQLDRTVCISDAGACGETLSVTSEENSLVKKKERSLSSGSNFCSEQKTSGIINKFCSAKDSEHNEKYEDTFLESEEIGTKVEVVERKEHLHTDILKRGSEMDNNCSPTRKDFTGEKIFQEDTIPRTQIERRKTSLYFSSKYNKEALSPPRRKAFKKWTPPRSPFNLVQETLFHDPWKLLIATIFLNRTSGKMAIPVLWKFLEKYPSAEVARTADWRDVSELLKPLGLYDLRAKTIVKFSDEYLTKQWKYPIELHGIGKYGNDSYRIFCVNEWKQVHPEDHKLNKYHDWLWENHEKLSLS

COc1cc(Nc2ccc([N+](=O)[O-])cc2C(=O)O)cc2ccccc12
inhibition [1]: 71%
inhibition [2]: 44%
inhibition [3]: 91.9%
inhibition [4]: 3.71%
inhibition [5]: 5.25%
inhibition [6]: 11.3%
inhibition ([7]; Hit No): 33.4%
inhibition [8]: 23.2%
inhibition [9]: 67.3%
inhibition [10]: 10.9%

Cc1cccc(NC(=O)CN2CCC(c3ccccn3)CC2)c1
inhibition [1]: 8.44%
inhibition [2]: 7.82%
inhibition [3]: 18.5%
inhibition [4]: -1.77%
inhibition [5]: -0.35%
inhibition [6]: 12.1%
inhibition ([7]; Hit No): 0.0304%
inhibition [8]: 0.438%
inhibition [9]: 12.4%
inhibition [10]: -6.98%

CC1(C)CCC[C@]2(C)[C@@H](C=O)C(C=O)=CC[C@@H]12
inhibition [1]: 54.4%
inhibition [2]: 14.4%
inhibition [3]: 80.5%
inhibition [4]: -1.47%
inhibition [5]: 8.57%
inhibition [6]: -1.08%
inhibition ([7]; Hit Yes): 88.4%
inhibition [8]: 16.1%
inhibition [9]: 49%
inhibition [10]: 2.98%

O=C(Nc1ccccc1Br)N[C@@H]1CCN(c2ccc(C(F)(F)F)cn2)C1
inhibition [1]: 41.6%
inhibition [2]: 35.3%
inhibition [3]: 26.9%
inhibition [4]: -1.77%
inhibition [5]: 2.71%
inhibition [6]: 6.35%
inhibition ([7]; Hit No): 3.57%
inhibition [8]: 15%
inhibition [9]: 27.5%
inhibition [10]: 2.31%

NCCc1c[nH]c2ccc(C(N)=O)cc12
inhibition [1]: -4.67%
inhibition [2]: -1.86%
inhibition [3]: 4.88%
inhibition [4]: 7.95%
inhibition [5]: -5.97%
inhibition [6]: -7.6%
inhibition ([7]; Hit No): -3.21%
inhibition [8]: 0.209%
inhibition [9]: 8.45%
inhibition [10]: -6.78%

CCC(C)(C)/N=C(\NC#N)Nc1cccnc1
inhibition [1]: 4.69%
inhibition [2]: 6.03%
inhibition [3]: 4.93%
inhibition [4]: 1.64%
inhibition [5]: -1.62%
inhibition [6]: 21.2%
inhibition ([7]; Hit No): -5.35%
inhibition [8]: -2.33%
inhibition [9]: 5.61%
inhibition [10]: -3.3%

Cc1c(C2=CCN(C(=O)N(C)C(C)C)CC2)nnn1-c1cccnc1F
inhibition [1]: 0.847%
inhibition [2]: -1.32%
inhibition [3]: 17%
inhibition [4]: -0.649%
inhibition [5]: 9%
inhibition [6]: -9.8%
inhibition ([7]; Hit No): -1.95%
inhibition [8]: 11.5%
inhibition [9]: 17.2%
inhibition [10]: -8.86%

CC(CNS(=O)(=O)C(C)C)c1ccc(-c2ccc(C#N)cc2)cc1 (stereo not given)
inhibition [1]: 19.3%
inhibition [2]: 23.5%
inhibition [3]: -2.6%
inhibition [4]: 12%
inhibition [5]: 0.669%
inhibition [6]: 4.7%
inhibition ([7]; Hit No): -4.77%
inhibition [8]: 7.84%
inhibition [9]: 11.5%
inhibition [10]: -7.52%

Cc1cc(C)cc(C(=O)N(C)[C@H](Cc2ccc(-c3ccccc3)cc2)C(=O)N[C@@H](Cc2c[nH]c3ccccc23)C(=O)O)c1
inhibition [1]: 60.3%
inhibition [2]: 4.38%
inhibition [3]: 76.9%
inhibition [4]: -1.83%
inhibition [5]: 12.5%
inhibition [6]: 2.66%
inhibition ([7]; Hit No): 16.2%
inhibition [8]: 4.62%
inhibition [9]: 48.4%
inhibition [10]: 6.08%

CC(C)c1noc(N2CCC(COc3ccc(-c4ccc(S(C)(=O)=O)cc4)nc3)CC2)n1
inhibition [1]: -9.32%
inhibition [2]: -8.23%
inhibition [3]: 18.2%
inhibition [4]: 10.9%
inhibition [5]: 5.01%
inhibition [6]: -6.14%
inhibition ([7]; Hit No): 3.18%
inhibition [8]: -6.43%
inhibition [9]: 3%
inhibition [10]: -6.54%

O=C(O)c1ccc(S(=O)(=O)N(Cc2ccc(OC(F)(F)F)cc2)c2ncc(C(F)(F)F)cc2Cl)cc1
inhibition [1]: 39.2%
inhibition [2]: 12.7%
inhibition [3]: 61.2%
inhibition [4]: 11.7%
inhibition [5]: 14.4%
inhibition [6]: 14.6%
inhibition ([7]; Hit No): 15.6%
inhibition [8]: 2.42%
inhibition [9]: 35%
inhibition [10]: 2.72%

N#Cc1ccc(NC(=O)Nc2ccccc2Br)c2nn[nH]c12
inhibition [1]: 21%
inhibition [2]: -2.94%
inhibition [3]: 35.7%
inhibition [4]: 0.686%
inhibition [5]: 1.51%
inhibition [6]: 9.25%
inhibition ([7]; Hit No): -1.34%
inhibition [8]: 7.57%
inhibition [9]: 26.3%
inhibition [10]: -8.36%

O=C(O)Cn1c(C(=O)Nc2nc(-c3ccccc3Cl)cs2)cc2ccccc21
inhibition [1]: 38.1%
inhibition [2]: 17.4%
inhibition [3]: 40.1%
inhibition [4]: -4.5%
inhibition [5]: 0.265%
inhibition [6]: -9.07%
inhibition ([7]; Hit No): 6.47%
inhibition [8]: 5.06%
inhibition [9]: 39.6%
inhibition [10]: -4.79%

COc1cc(C(=O)NS(=O)(=O)c2ccccc2C)ccc1Cc1cn(C)c2ccc(NC(=O)OC3CCCC3)cc12
inhibition [1]: 67.2%
inhibition [2]: 33.1%
inhibition [3]: 50.6%
inhibition [4]: 13.9%
inhibition [5]: 28.2%
inhibition [6]: 29.8%
inhibition ([7]; Hit Yes): 45.1%
inhibition [8]: 24%
inhibition [9]: 61.3%
inhibition [10]: 7.14%

CCc1nc2c(o1)CC(c1ccc(C)cc1C)CC2=O (stereo not given)
inhibition [1]: 17.2%
inhibition [2]: 23.6%
inhibition [3]: -1.84%
inhibition [4]: 6.08%
inhibition [5]: 6.53%
inhibition [6]: -4.39%
inhibition ([7]; Hit No): -9.46%
inhibition [8]: 5.18%
inhibition [9]: 16.4%
inhibition [10]: 0.136%

COc1cc([N+](=O)[O-])ccc1NC(=O)c1ccccc1O
inhibition [1]: 0.275%
inhibition [2]: -4.2%
inhibition [3]: 4.12%
inhibition [4]: 3.86%
inhibition [5]: 8.06%
inhibition [6]: -0.258%
inhibition ([7]; Hit No): -1.87%
inhibition [8]: 9.42%
inhibition [9]: 9.09%
inhibition [10]: -6.06%

Cn1nc(C(=O)NCc2ccc(C(=O)O)cc2)cc1-c1ccc2[nH]ccc2c1
inhibition [1]: 70.9%
inhibition [2]: 115%
inhibition [3]: -5.73%
inhibition [4]: 1.38%
inhibition [5]: -4.83%
inhibition [6]: -3.92%
inhibition ([7]; Hit No): 0.23%
inhibition [8]: 8.36%
inhibition [9]: 56.9%
inhibition [10]: 0.276%

O=C(NCC(=O)N1CC[C@H](N[C@H]2CC[C@@](O)(c3ccc(-c4ncccn4)cn3)CC2)C1)c1cccc(C(F)(F)F)c1
inhibition [1]: -4.26%
inhibition [2]: -2.02%
inhibition [3]: 10.3%
inhibition [4]: 2.76%
inhibition [5]: 6.25%
inhibition [6]: 0.458%
inhibition ([7]; Hit No): 1.04%
inhibition [8]: 2.1%
inhibition [9]: 24.3%
inhibition [10]: -9.06%

COc1ccccc1C(=O)Nc1cccc(NC(=O)c2cccc(C)c2)c1
inhibition [1]: 14.3%
inhibition [2]: 18.5%
inhibition [3]: 8.28%
inhibition [4]: -5.33%
inhibition [5]: -3.15%
inhibition [6]: 15.4%
inhibition ([7]; Hit No): -2.96%
inhibition [8]: -5.33%
inhibition [9]: 19.8%
inhibition [10]: -7.92%

COc1cc(Nc2ccnc3ccc(Br)cc23)cc(OC)c1OC
inhibition [1]: 11.8%
inhibition [2]: 34.4%
inhibition [3]: 35%
inhibition [4]: 10%
inhibition [5]: 1.58%
inhibition [6]: 0.785%
inhibition ([7]; Hit No): 14.7%
inhibition [8]: 26.8%
inhibition [9]: 50.8%
inhibition [10]: 12.8%

C[C@]1(C(=O)N(CCCC(=O)O)Cc2cccc(Cl)c2)CCN1C(=O)c1csc2ccccc12
inhibition [1]: -2.17%
inhibition [2]: -1.32%
inhibition [3]: 11.5%
inhibition [4]: 3.5%
inhibition [5]: -3.73%
inhibition [6]: -9.8%
inhibition ([7]; Hit No): 3.32%
inhibition [8]: 7.04%
inhibition [9]: 25.5%
inhibition [10]: -7.61%
